Here are results for eleven compounds from patent US8492559B2, “Substituted indole compounds” (Gruenenthal GmbH, priority 2009, dated 2013).

The target of one assay is T1, human B1R receptor (hB1R) (Homo sapiens, UniProt P46663).
T1 construct: expressed in transfected cells; host or cells: CHO K1 cells
T1 sequence (P46663 1-353): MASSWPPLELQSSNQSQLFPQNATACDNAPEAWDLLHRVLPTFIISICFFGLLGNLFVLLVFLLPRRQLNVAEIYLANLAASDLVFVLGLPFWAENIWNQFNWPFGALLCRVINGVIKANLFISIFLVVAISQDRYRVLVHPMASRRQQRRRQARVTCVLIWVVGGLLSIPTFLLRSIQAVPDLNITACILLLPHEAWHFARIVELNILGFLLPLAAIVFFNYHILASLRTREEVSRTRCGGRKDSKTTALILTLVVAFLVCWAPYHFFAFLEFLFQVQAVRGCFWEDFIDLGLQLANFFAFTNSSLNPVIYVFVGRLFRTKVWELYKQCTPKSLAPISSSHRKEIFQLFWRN
Briefly: Functional investigation on the bradykinin 1 receptor (B1R), FLIPR Ca2+ assay, hB1R cells. It counts as cell-based. As to conditions: 10 μM test substance; CHO K1 cells with human B1R; agonist Lys-Des-Arg9 bradykinin; % of maximum achievable inhibition. The procedure: The agonistic or antagonistic action of substances can be quantified on the bradykinin 1 receptor (B1R) of the human and rat species with ectopically expressing cell lines (CHO K1 cells) and with the aid of a Ca^2+-sensitive dye (Fluo-4) using a fluorescent imaging plate reader (FLIPR). The indication in % activation is based on the Ca^2+ signal after addition of Lys-Des-Arg^9 bradykinin (0.5 nM) or Des-Arg^9 bradykinin (100 nM). Antagonists lead to a suppression of the Ca^2+ influx following administration of the agonist. The % inhibition in comparison with the maximum achievable inhibition is indicated.
1. Functional Investigation on the Bradykinin 1 Receptor (B1R)
The agonistic or antagonistic action of substances can be determined on the bradykinin 1 receptor (B1R) of the human and rat species with the following assay. According to this assay, the Ca^2+ inflow through the channel is quantified with the aid of a Ca^2+-sensitive dye (Fluo-4 type, Molecular Probes Europe BV, Leiden, Netherlands) in a fluorescent imaging plate reader (FLIPR, Molecular Devices, Sunnyvale, USA).
Chinese hamster ovary cells (CHO K1 cells) which are stably transfected with the human B1R gene (hB1R cells) or the B1R gene of the rat (rB1R cells) are used. For functional investigations these cells are plated-out onto black 96-well plates with a clear base (BD Biosciences, Heidelberg, Germany or Greiner, Frickenhausen, Germany) in a density of 20,000-35,000 cells/well. Overnight the cells are incubated at 37° C. and 5% CO2 in culture medium (hB1R cells: Ham's Nutrient Mixture F12, Gibco Invitrogen GmbH, Karlsruhe, Germany or DMEM, Sigma-Aldrich, Taufkirchen, Germany; rB1R cells: D-MEM/F12, Gibco Invitrogen, Karlsruhe, Germany) with 10 vol. % FBS (foetal bovine serum, Gibco Invitrogen GmbH, Karlsruhe, Germany or PAN Biotech GmbH, Aidenbach, Germany).
On the following day the cells are loaded with 2.13 μM Fluo-4 (Molecular Probes Europe BV, Leiden, Netherlands) in HBSS buffer (Hank's buffered saline solution, Gibco Invitrogen GmbH, Karlsruhe, Germany) with 2.5 mM probenecid (Sigma-Aldrich, Taufkirchen, Germany) and 10 mM HEPES (Sigma-Aldrich, Taufkirchen, Germany) for 60 min at 37° C. The plates are subsequently washed twice with HBSS buffer, and HBSS buffer which additionally contains 0.1% BSA (bovine serum albumin; Sigma-Aldrich, Taufkirchen, Germany), 5.6 mM glucose and 0.05% gelatine (Merck KGaA, Darmstadt, Germany) is added. After a further incubation of 20 minutes at room temperature, the plates are inserted into the FLIPR for Ca^2+ measurement.
Alternatively they are washed with buffer A (15 mM HEPES, 80 mM NaCl, 5 mM KCl, 1.2 mM CaCl2, 0.7 mM MgSO4, 2 g/l glucose, 2.5 mM probenecid) and loaded with buffer A with added 2.5 μM Fluo-4 and 0.025% Pluronic F127 (Sigma-Aldrich, Taufkirchen, Germany). The cells are then washed twice with buffer A and incubated for 30 minutes with buffer A, which additionally contains 0.05% BSA and 0.05% gelatine, at room temperature and then used for Ca^2+ measurement in the FLIPR. The Ca^2+-dependent fluorescence is measured here before and after addition of substances (λex=488 nm, λem=540 nm). The quantification is performed by measuring the highest fluorescence intensity (FC, fluorescence counts) over time.
The FLIPR protocol comprises two additions of substance. Test substances (10 μM) are first pipetted onto the cells and the Ca^2+ inflow is compared with the control (hB1R: Lys-Des-Arg^9 bradykinin>=50 nM; rB1R: Des-Arg^9 bradykinin 10 μM). The value in % activation based on the Ca^2+ signal after addition of Lys-Des-Arg^9 bradykinin (>=50 nM) or Des-Arg^9 bradykinin (10 μM) is obtained therefrom. After incubation for 10-20 minutes, Lys-Des-Arg^9 bradykinin (hB1R) or Des-Arg^9 bradykinin (rB1R) is applied in the EC80 concentration and the inflow of Ca^2+ is likewise determined.
Antagonists lead to a suppression of the Ca^2+ inflow. The % inhibition in comparison with the maximum achievable inhibition is calculated. […]
Take `COc1cc(C)c(S(=O)(=O)Nc2cccc3ccn(CC(=O)N4CCC5(CC4)CCN(c4ccncc4)CC5)c23)c(C)c1` [Compound G-05, 4-Methoxy-2,6-dimethyl-N-[1-[2-oxo-2-(9-pyridin-4-yl-3,9-diazaspiro[5.5]undecan-3-yl)-ethyl]-1H-indol-7-yl]-benzenesulfonic acid amide]: the “B1R antagonism, human [10 μM] % inhibition” value stood at 100%.

Staying with this assay, now noted: CHO-K1, 10 μM test substance; CHO K1 cells with human B1R; agonist Lys-Des-Arg9 bradykinin; % of maximum achievable inhibition; read-out: B1R antagonism, human [10 μM] % inhibition.
For the compound `COc1cc(C)c(S(=O)(=O)Nc2ccc3ccn(CC(=O)N4CCC(CCN5CCCC5)CC4)c3c2)c(C)c1` [Compound G-01, 4-Methoxy-2,6-dimethyl-N-[1-[2-oxo-2-[4-(2-pyrrolidin-1-yl-ethyl)-piperidin-1-yl]-ethyl]-1H-indol-6-yl]-benzenesulfonic acid amide], the inhibition at 10 µM was 98%.
On to `COc1cc(C)c(S(=O)(=O)Nc2cccc3ccn(CC(=O)N4CCC(CCN5CCCC5)CC4)c23)c(C)c1` [Compound G-02, 4-Methoxy-2,6-dimethyl-N-[1-[2-oxo-2-[4-(2-pyrrolidin-1-yl-ethyl)-piperidin-1-yl]-ethyl]-1H-indol-7-yl]-benzenesulfonic acid amide], for which the inhibition at 10 µM was 95%.
Turning to `COc1cc(C)c(S(=O)(=O)Nc2cccc3ccn(CC(=O)N4CCC5(CC4)C(=O)NCN5c4ccccc4)c23)c(C)c1` [Compound G-04, 4-Methoxy-2,6-dimethyl-N-[1-[2-oxo-2-(1-oxo-4-phenyl-2,4,8-triazaspiro[4.5]decan-8-yl)-ethyl]-1H-indol-7-yl]-benzenesulfonic acid amide], the inhibition at 10 µM worked out at 68%.
Regarding `COc1cc(C)c(S(=O)(=O)Nc2cccc3ccn(CC(=O)N4CCC(OCCN5CCCC5)(c5cccnc5)CC4)c23)c(C)c1` [Compound G-06, 4-Methoxy-2,6-dimethyl-N-[1-[2-oxo-2-[4-pyridin-3-yl-4-(2-pyrrolidin-1-yl-ethoxy)-piperidin-1-yl]-ethyl]-1H-indol-7-yl]-benzenesulfonic acid amide], the inhibition at 10 µM came out at 83%.
In the case of `O=C(CCn1ccc2ccc(N3Cc4cccc(Cl)c4C3=O)cc21)N1CCC2(CC1)CCN(c1ccncc1)CC2` [Compound G-07, 7-Chloro-2-[1-[3-oxo-3-(9-pyridin-4-yl-3,9-diazaspiro[5.5]undecan-3-yl)-propyl]-1H-indol-6-yl]-2,3-dihydro-isoindol-1-one], the inhibition at 10 µM came to 96%.
Same read-out and setting: with `O=C(Cn1ccc2ccc(N3Cc4cccc(Cl)c4C3=O)cc21)N1CCC2(CC1)CCN(c1ccncc1)CC2` [Compound G-08, 7-Chloro-2-[1-[2-oxo-2-(9-pyridin-4-yl-3,9-diazaspiro[5.5]undecan-3-yl)-ethyl]-1H-indol-6-yl]-2,3-dihydro-isoindol-1-one] the figure was 98%.
On the same count and under the same terms, with `O=C(CCn1ccc2cccc(N3Cc4cccc(Cl)c4C3=O)c21)N1CCC2(CC1)CCN(c1ccncc1)CC2` [Compound G-10, 7-Chloro-2-(1-(3-oxo-3-(9-(pyridin-4-yl)-3,9-diazaspiro[5.5]undecan-3-yl)propyl)-1H-indol-7-yl)isoindolin-1-one] the figure was 100%; with `O=C(Cn1ccc2cccc(N3Cc4cccc(Cl)c4C3=O)c21)N1CCC2(CC1)CCN(c1ccncc1)CC2` [Compound G-11, 7-Chloro-2-(1-(2-oxo-2-(9-(pyridin-4-yl)-3,9-diazaspiro[5.5]undecan-3-yl)ethyl)-1H-indol-7-yl)isoindolin-1-one], 46%; with `O=C(Cn1ccc2ccc(N3Cc4cccc(Cl)c4C3=O)cc21)N1CCC2(CCN(c3ccncc3)CC2)C1` [Compound G-12, 7-Chloro-2-(1-(2-oxo-2-(8-(pyridin-4-yl)-2,8-diazaspiro[4.5]decan-2-yl)ethyl)-1H-indol-6-yl)isoindolin-1-one], 98%.
As for `COc1cc(C)c(S(=O)(=O)Nc2cccc3ccn(CC(=O)N4CCC5(CC4)CC(c4ccncc4)=NO5)c23)c(C)c1` [Compound G-13, 4-Methoxy-2,6-dimethyl-N-(1-(2-oxo-2-(3-(pyridin-4-yl)-1-oxa-2,8-diazaspiro[4.5]dec-2-en-8-yl)ethyl)-1H-indol-7-yl)benzenesulfonic acid amide], the inhibition at 10 µM came out at 73%.
